From patent US20230190697A1, “METHODS FOR TREATING VIRAL INFECTIONS WITH NAFAMOSTAT” (priority 2020, published 2023)
Where “and” joins values, the source holds several entries; their conditions need not be identical. Equal entries are not always repeated.

How the values were obtained:
[1] = test system: SD rats; experiment: Single dose oral tolerability in SD rats (dose range-finding); format: in vivo
Excerpt: Oral Tolerability in Rats: The single dose tolerability to oral nafamostat was studied in SD rats in a non-GLP pilot dose range-finding study. […] All other animals survived to 7 days and had no abnormalities at necropsy.

[2] = test system: SD rats; experiment: Pilot repeat-dose oral study in male SD rats (5 days); format: in vivo; details: 1000 mg/kg/day PO for 5 days
Method: A pilot, non-GLP repeat-dose study was performed in which nafamostat mesylate (500 or 1000 mg/kg/day PO) was administered to 6 male SD rats per group for 5 days. […] One animal had petechiae on the lower third of the colon. […] Death in 2 of the animals followed seizure activity at about 1 h post-dose.

[3] = Pharmacokinetics of oral nafamostat mesylate solution in healthy male and female subjects; format: in vivo, human; details: human, oral, 200 mg dose level, individual subjects
Method: Part 1: Single Ascending Dose Study. Male and female subjects aged 18 - 70 were administered a single dose of 50 mg nafamostat mesylate on day 1, 100 mg nafamostat mesylate on day 3 or 4, and 200 mg nafamostat mesylate on day 5, 6, or 7. Nafamostat mesylate was administered in the form of an oral solution. […]
Part 2: Multiple Ascending Dose Study. Subjects were divided into 2 cohorts. Cohort 1 received an oral solution of 100 mg/mL nafamostat mesylate twice a day for 5 days with pharmacokinetic evaluations on each day. […] Safety evaluations continued for 48 hours after the last dose. After review and evidence of safety, Cohort 2 received an oral solution of 200 mg/mL nafamostat mesylate twice a day for 5 days with pharmacokinetic evaluations on each day. […] Safety evaluations continued for 48 hours after the last dose.
Part 3: Single Fixed Dose Administered Twice Daily for 5 Days. Six subjects, different than the subjects from Parts 1 and 2, received an oral solution of 200 mg/mL nafamostat mesylate twice a day for 5 days. Blood samples were obtained at pre-dose (0 hr.) and at 0.5, 1, 2, 3, 4, 6, and 8 hours after the first dose on Day 1 and again after the first dose on Day 5. […]
Oral solutions received by each subject were prepared by dissolving nafamostat mesylate in about 100 mL of EMETROL®/water and provided at a volume to deliver the indicated dosage. There was no placebo formulation.
Nafamostat pharmacokinetics was evaluated at the 200 mg dose levels.

[4] = target: hERG K+ channel (Homo sapiens, UniProt Q12809); experiment: cell-based; details: human, 50 µM
Method: Effects of nafamostat in an hERG assay: In an in vitro non-GLP screening study, effects of nafamostat on the hERG K^+ channel currents were evaluated in voltage-clamped human embryonic kidney cells at room temperature. […] A full ICH-Compliant hERG study and in vivo cardiovascular safety pharmacology study is be performed as part of the IND-enabling program.

Chain of hERG K+ channel (Q12809 whole entry): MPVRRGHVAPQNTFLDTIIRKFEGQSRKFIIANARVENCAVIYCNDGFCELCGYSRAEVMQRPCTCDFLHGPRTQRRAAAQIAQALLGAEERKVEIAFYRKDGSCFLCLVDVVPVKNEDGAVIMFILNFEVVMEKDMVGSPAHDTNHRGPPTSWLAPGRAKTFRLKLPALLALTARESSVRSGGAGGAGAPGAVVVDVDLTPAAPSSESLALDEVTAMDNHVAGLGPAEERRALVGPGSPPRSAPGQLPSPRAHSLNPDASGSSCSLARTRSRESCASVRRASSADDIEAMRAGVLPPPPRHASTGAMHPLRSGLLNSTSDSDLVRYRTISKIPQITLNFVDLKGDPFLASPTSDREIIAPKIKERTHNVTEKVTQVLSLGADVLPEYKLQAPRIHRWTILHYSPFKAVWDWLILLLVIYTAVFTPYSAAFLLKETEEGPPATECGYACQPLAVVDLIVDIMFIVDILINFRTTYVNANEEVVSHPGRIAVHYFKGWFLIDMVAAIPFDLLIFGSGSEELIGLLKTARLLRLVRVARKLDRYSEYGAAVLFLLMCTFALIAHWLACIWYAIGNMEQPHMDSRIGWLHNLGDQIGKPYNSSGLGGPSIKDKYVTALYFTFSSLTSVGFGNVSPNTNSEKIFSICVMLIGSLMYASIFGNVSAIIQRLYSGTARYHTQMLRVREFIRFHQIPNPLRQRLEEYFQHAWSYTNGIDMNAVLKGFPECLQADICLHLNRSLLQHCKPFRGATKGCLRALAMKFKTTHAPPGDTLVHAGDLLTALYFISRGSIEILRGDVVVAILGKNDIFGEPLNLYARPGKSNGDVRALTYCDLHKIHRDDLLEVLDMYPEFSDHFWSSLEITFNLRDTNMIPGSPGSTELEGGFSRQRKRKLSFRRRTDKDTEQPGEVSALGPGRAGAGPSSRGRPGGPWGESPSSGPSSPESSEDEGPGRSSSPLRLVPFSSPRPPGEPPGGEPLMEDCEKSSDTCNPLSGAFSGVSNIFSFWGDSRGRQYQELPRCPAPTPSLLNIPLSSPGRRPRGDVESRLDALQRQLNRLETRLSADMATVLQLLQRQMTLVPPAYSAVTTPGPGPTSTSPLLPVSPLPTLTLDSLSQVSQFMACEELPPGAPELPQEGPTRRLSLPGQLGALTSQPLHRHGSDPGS

With `CS(=O)(=O)O.CS(=O)(=O)O.N=C(N)Nc1ccc(C(=O)Oc2ccc3cc(C(=N)N)ccc3c2)cc1` [nafamostat mesylate, 6-amidino-2-naphthyl p-guanidinobenzoate dimethanesulfonate] the mortality ([1]; 1000 mg/kg female dose group, stomach perforations at necropsy indicate dosing misadministration) was 2 of 3 animals died at 48 hours, the “single dose oral tolerability” value ([1]; both, SD, rat, in vivo, po, 7 days) was at least 1000 mg/kg and the “necropsy finding in animals that died” value [2] was “fluid filled stomach at necropsy”. For the same compound, the mortality ([2]; 6 male SD rats) was “Four of 6 animals receiving 1000 mg/kg/day died by day 5”, the concentration at 8 h ([3]; both sexes, blood, Day 1, 8 h post-dose) was under 0.1 ng/mL and the concentration at 12 h ([3]; both sexes, blood, Day 1, 12 h post-dose) was under 0.1 ng/mL. The “NM” value ([3]; Day 1, 0 h post-dose) was under 0.100 ng/mL, the “NM” value ([3]; Day 1, 0.5 h post-dose) was under 0.100 ng/mL and the “NM” value ([3]; Day 1, 1 h post-dose, listed as NM, dimethanesulfonate) was < 0.100 ng/mL (4×) and 0.125 ng/mL. For the same compound, the “NM” value ([3]; Day 1, 2 h post-dose) was under 0.100 ng/mL, the “NM” value ([3]; Day 1, 3 h post-dose) was under 0.100 ng/mL and the “NM” value ([3]; Day 1, 4 h post-dose) was under 0.100 ng/mL. The “NM” value ([3]; Day 1, 6 h post-dose) was under 0.100 ng/mL, the “NM” value ([3]; Day 1, 8 h post-dose) was under 0.100 ng/mL and the “NM” value ([3]; Day 1, 12 h post-dose) was under 0.100 ng/mL. For the same compound, the “NM” value ([3]; Day 2, 0 h post-dose) was under 0.100 ng/mL, the “NM” value ([3]; Day 2, 0.5 h post-dose) was under 0.100 ng/mL and the “NM” value ([3]; Day 2, 1 h post-dose) was under 0.100 ng/mL. For the same compound, the “NM” value ([3]; Day 2, 2 h post-dose) was under 0.100 ng/mL, the “NM” value ([3]; Day 2, 3 h post-dose) was under 0.100 ng/mL and the “NM” value ([3]; Day 2, 4 h post-dose) was under 0.100 ng/mL. The “NM” value ([3]; Day 2, 6 h post-dose) was under 0.100 ng/mL, the “NM” value ([3]; Day 2, 8 h post-dose) was under 0.100 ng/mL and the “NM” value ([3]; Day 2, 12 h post-dose) was under 0.100 ng/mL. The “NM” value ([3]; Day 2, 16 h post-dose) was under 0.100 ng/mL, the “NM” value ([3]; Day 3, 0 h post-dose) was under 0.100 ng/mL and the “NM” value ([3]; Day 3, 4 h post-dose, listed as NM, dimethanesulfonate) was < 0.100 ng/mL (2×) and 0.101 ng/mL. The “NM” value ([3]; Day 3, 8 h post-dose) was under 0.100 ng/mL, the “NM” value ([3]; Day 3, 12 h post-dose) was under 0.100 ng/mL and the “NM” value ([3]; Day 3, 16 h post-dose) was under 0.100 ng/mL. For the same compound, the “NM” value ([3]; Day 4, 0 h post-dose, listed as NM, dimethanesulfonate) was under 0.100 ng/mL, the “NM” value ([3]; Day 4, 4 h post-dose) was under 0.100 ng/mL and the “inhibition of hERG potassium currents” value [4] was “approximately 24%”.
